Data taken from patent US9181288B2, “Azepane derivatives and methods of treating hepatitis B infections” (Novira Therapeutics, Inc., priority 2014, dated 2015).

How the values were obtained:
[1] = molecular target: HBV C150Bo capsid protein (mutant C150 HBV core protein labeled with BODIPY-FL) (Hepatitis B virus genotype D subtype adw, UniProt P03147, C107A/C48A/C61A/R150C); test: HBV assembly assay (fluorescence quenching in vitro capsid assembly); assay type: biochemical; conditions: at about 10 μM; 50 mM Hepes pH 7.5, 150 mM NaCl, 1 hour room temperature
[2] = tested on: HBV replication in HepG2-2.2.15 cells; test: Inhibition of HBV replication dot-blot assay; assay type: cell-based; conditions: Hepatitis B virus, 144 h, six days, reduction in HBV DNA levels
Protocol: Compounds active in the HBV assembly assay are tested for their activity and toxicity in cellular assay. In the first anti-viral assay, the ability of compounds to inhibit HBV replication in an HBV-producing hepatoma cell line using the dot-blot method is evaluated.
Briefly, confluent monolayers of HepG2-2.2.15 cells are incubated with complete medium containing various concentrations of a test compound. Three days later, the culture medium is replaced with fresh medium containing the appropriately diluted test compound. Six days following the initial administration of the test compound, the cell culture supernatant is collected, and cell lysis is performed. The samples are applied onto Nylos membranes and DNA is immobilized to the membrane by UV cross-linking. After pre-hybridization, the HBV probe is added and the hybridization is performed overnight. The membranes are exposed to the Kodak films; antiviral activity is calculated from the reduction in HBV DNA levels (EC50). The EC50 for antiviral activity is calculated from the dose response curves of active compounds. Assay performance over time is monitored by the use of the standard positive control compounds ETV, BAY 41-4109, and HAP-1.
Selected compounds were tested for their activity and toxicity in cellular assay. In the first anti-viral assay, the ability of compounds to inhibit HBV replication in an HBV-producing hepatoma cell line using the dot-blot method was evaluated.
Confluent monolayers of HepG2-2.2.15 cells were incubated with complete medium containing various concentrations of a test compound. Three days later, the culture medium was replaced with fresh medium containing the appropriately diluted test compound. Six days following the initial administration of the test compound, the cell culture supernatant was collected, and cell lysis was performed. The samples were applied onto Nylos membranes and DNA was immobilized to the membrane by UV cross-linking. After pre-hybridization, the HBV probe was added and the hybridization was performed overnight. The membranes were exposed to the Kodak films; antiviral activity was calculated from the reduction in HBV DNA levels (EC50). The EC50 for antiviral activity was calculated from the dose response curves of active compounds. Assay performance over time was monitored by the use of the standard positive control compounds ETV, BAY 41-4109, and HAP-1.

Sequence of HBV C150Bo capsid protein (mutant C150 HBV core protein labeled with BODIPY-FL) (P03147 1-150 C48A/C61A/C107A/R150C): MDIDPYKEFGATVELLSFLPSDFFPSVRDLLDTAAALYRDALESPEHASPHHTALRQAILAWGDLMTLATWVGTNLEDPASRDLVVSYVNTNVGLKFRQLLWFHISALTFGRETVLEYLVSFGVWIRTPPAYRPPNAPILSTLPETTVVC

Compound | Activity (HBV assembly assay) [1] | inhibition at 10 µM [2] [%]
O=C(Nc1ccc(F)c(Cl)c1)c1ccc(F)c(S(=O)(=O)N2CCCC[C@@H](O)C2)c1 [Compound 1763_E1] | + (‘+’ indicates >50% activity at about 10 μM) | > 50
O=C(Nc1ccc(F)c(Cl)c1)c1ccc(F)c(S(=O)(=O)N2CCCC[C@H](O)C2)c1 [Compound 1763_E2] | + (‘+’ indicates >50% activity at about 10 μM) | > 50
O=C(Nc1cc(F)c(F)c(F)c1)c1ccc(F)c(S(=O)(=O)N2CCCC(O)CC2)c1 (centres unmarked) [Compound 1765] | + (‘+’ indicates >50% activity at about 10 μM) | > 50
O=C(Nc1ccc(F)c(Cl)c1)c1ccc(F)c(S(=O)(=O)N2CCC[C@@H](O)CC2)c1 [Compound 1766_E1] | + (‘+’ indicates >50% activity at about 10 μM) | > 50
O=C(Nc1ccc(F)c(Cl)c1)c1ccc(F)c(S(=O)(=O)N2CCC[C@H](O)CC2)c1 [Compound 1766_E2] | + (‘+’ indicates >50% activity at about 10 μM) | > 50
O=C(Nc1ccc(F)c(Cl)c1)c1ccc(CO)c(S(=O)(=O)N2CCCCC(F)C2)c1 (centres unmarked) [Compound 1768] | + (‘+’ indicates >50% activity at about 10 μM) | > 50
O=C(Nc1ccc(F)c(Cl)c1)c1ccc(CO)c(S(=O)(=O)N2CCCC(F)CC2)c1 (centres unmarked) [Compound 1769] | + (‘+’ indicates >50% activity at about 10 μM) | > 50
O=C(Nc1ccc(F)c(Cl)c1)c1ccc(CF)c(S(=O)(=O)N2CCCC(O)CC2)c1 (centres unmarked) [Compound 1819] | + (‘+’ indicates >50% activity at about 10 μM) | > 50
O=C(Nc1cc(F)c(F)c(F)c1)c1ccc(F)c(S(=O)(=O)N2CCCC(F)C(O)C2)c1 (centres unmarked) [Compound 1820] | + (‘+’ indicates >50% activity at about 10 μM) | > 50
O=C(Nc1ccc(F)c(F)c1)c1ccc(F)c(S(=O)(=O)N2CCCC(F)C(O)C2)c1 (centres unmarked) [Compound 1821] | + (‘+’ indicates >50% activity at about 10 μM) | > 50
O=C(Nc1ccc(F)c(F)c1)c1ccc(F)c(S(=O)(=O)N2CCCC(F)[C@@H](O)C2)c1 (some centres unmarked) [Compound 1821_D1] | + (‘+’ indicates >50% activity at about 10 μM) | > 50
O=C(Nc1ccc(F)c(F)c1)c1ccc(F)c(S(=O)(=O)N2CCCC(F)[C@H](O)C2)c1 (some centres unmarked) [Compound 1821_D2] | + (‘+’ indicates >50% activity at about 10 μM) | > 50
O=C(Nc1ccc(F)c(Cl)c1)c1ccc(F)c(S(=O)(=O)N2CCCC(F)[C@@H](O)C2)c1 (some centres unmarked) [Compound 1822_D1] | + (‘+’ indicates >50% activity at about 10 μM) | > 50
O=C(Nc1ccc(F)c(Cl)c1)c1ccc(F)c(S(=O)(=O)N2CCCC(F)[C@H](O)C2)c1 (some centres unmarked) [Compound 1822_D2] | + (‘+’ indicates >50% activity at about 10 μM) | > 50
O=C(Nc1cc(F)c(F)c(F)c1)c1ccc(F)c(S(=O)(=O)N2CC(O)CCC(F)C2)c1 (centres unmarked) [Compound 1826_D2] | + (‘+’ indicates >50% activity at about 10 μM) | > 50
CC1(O)CCCN(S(=O)(=O)c2cc(C(=O)Nc3cc(F)c(F)c(F)c3)ccc2CF)CC1 (centres unmarked) [Compound 1829-2] | + (‘+’ indicates >50% activity at about 10 μM) | > 50
O=C(Nc1cc(F)c(F)c(F)c1)c1ccc(F)c(S(=O)(=O)N2CCC[C@@H](O)C(F)C2)c1 (some centres unmarked) [Compound 1829_D1] | + (‘+’ indicates >50% activity at about 10 μM) | > 50
O=C(Nc1cc(F)c(F)c(F)c1)c1ccc(F)c(S(=O)(=O)N2CCC[C@H](O)C(F)C2)c1 (some centres unmarked) [Compound 1829_D2] | + (‘+’ indicates >50% activity at about 10 μM) | > 50
CC1(O)CCCCN(S(=O)(=O)c2cc(C(=O)Nc3ccc(F)c(Cl)c3)ccc2F)C1 (centres unmarked) [Compound 1890] | + (‘+’ indicates >50% activity at about 10 μM) | > 50
CC1(O)CCCCN(S(=O)(=O)c2cc(C(=O)Nc3ccc(F)c(F)c3)ccc2F)C1 (centres unmarked) [Compound 1891] | + (‘+’ indicates >50% activity at about 10 μM) | > 50

Compound | Activity (HBV assembly assay) [1] | inhibition at 10 µM [2] [%]
CC1(O)CCCCN(S(=O)(=O)c2cc(C(=O)Nc3cc(F)c(F)c(F)c3)ccc2F)C1 (centres unmarked) [Compound 1892] | + (‘+’ indicates >50% activity at about 10 μM) | > 50
O=C(Nc1ccc(F)c(Cl)c1)c1ccc(F)c(S(=O)(=O)N2CCOCC(O)C2)c1 (centres unmarked) [Compound 1893] | + (‘+’ indicates >50% activity at about 10 μM) | > 50
O=C(Nc1ccc(F)c(Cl)c1)c1ccc(F)c(S(=O)(=O)N2CCOC[C@@H](O)C2)c1 [Compound 1893_E1] | + (‘+’ indicates >50% activity at about 10 μM) | > 50
O=C(Nc1ccc(F)c(Cl)c1)c1ccc(F)c(S(=O)(=O)N2CCOC[C@H](O)C2)c1 [Compound 1893_E2] | + (‘+’ indicates >50% activity at about 10 μM) | > 50
O=C(Nc1ccc(F)c(F)c1)c1ccc(F)c(S(=O)(=O)N2CCOCC(O)C2)c1 (centres unmarked) [Compound 1894] | + (‘+’ indicates >50% activity at about 10 μM) | > 50
O=C(Nc1cc(F)c(F)c(F)c1)c1ccc(F)c(S(=O)(=O)N2CCOCC(O)C2)c1 (centres unmarked) [Compound 1895] | + (‘+’ indicates >50% activity at about 10 μM) | > 50
O=C(Nc1ccc(F)c(Cl)c1)c1ccc(F)c(S(=O)(=O)N2CCCC(O)C(O)C2)c1 (centres unmarked) [Compound 1909] |  | > 50
Cc1ccc(C(=O)Nc2ccc(F)c(Cl)c2)cc1S(=O)(=O)N1CCCC(O)CC1 (centres unmarked) [Compound 1910] | + (‘+’ indicates >50% activity at about 10 μM) | > 50
Cc1ccc(C(=O)Nc2ccc(F)c(F)c2)cc1S(=O)(=O)N1CCCCC(O)C1 (centres unmarked) [Compound 1914] | + (‘+’ indicates >50% activity at about 10 μM) | > 50
Cc1ccc(C(=O)Nc2cc(F)c(F)c(F)c2)cc1S(=O)(=O)N1CCCCC(O)C1 (centres unmarked) [Compound 1915] | + (‘+’ indicates >50% activity at about 10 μM) | > 50
O=C(Nc1ccc(F)c(Cl)c1)c1ccc(CF)c(S(=O)(=O)N2CCCC(O)CC2)c1 (centres unmarked) [Compound 1916] | + (‘+’ indicates >50% activity at about 10 μM) | 
O=C(Nc1ccc(F)c(F)c1)c1ccc(CF)c(S(=O)(=O)N2CCCC(O)CC2)c1 (centres unmarked) [Compound 1917] | + (‘+’ indicates >50% activity at about 10 μM) | > 50
CC1(O)CCCN(S(=O)(=O)c2cc(C(=O)Nc3ccc(F)c(F)c3)ccc2F)CC1 (centres unmarked) [Compound 1938] | + (‘+’ indicates >50% activity at about 10 μM) | > 50
CC1(O)CCCN(S(=O)(=O)c2cc(C(=O)Nc3cc(F)c(F)c(F)c3)ccc2F)CC1 (centres unmarked) [Compound 1944] | + (‘+’ indicates >50% activity at about 10 μM) | > 50
O=C(Nc1cc(F)c(F)c(F)c1)c1cccc(S(=O)(=O)N2CCOCC(O)C2)c1 (centres unmarked) [Compound 1975] | + (‘+’ indicates >50% activity at about 10 μM) | > 50
O=C(Nc1ccc(F)c(Cl)c1)c1cccc(S(=O)(=O)N2CCOCC(O)C2)c1 (centres unmarked) [Compound 1977] | + (‘+’ indicates >50% activity at about 10 μM) | > 50
COc1ccc(C(=O)Nc2ccc(F)c(F)c2)cc1S(=O)(=O)N1CCOCC(O)C1 (centres unmarked) [Compound 1979] | + (‘+’ indicates >50% activity at about 10 μM) | > 50
COc1ccc(C(=O)Nc2ccc(F)c(Cl)c2)cc1S(=O)(=O)N1CCOCC(O)C1 (centres unmarked) [Compound 1980] | + (‘+’ indicates >50% activity at about 10 μM) | > 50
O=C(Nc1cc(F)c(F)c(F)c1)c1ccc(CF)c(S(=O)(=O)N2CCOCC(O)C2)c1 (centres unmarked) [Compound 1981] | + (‘+’ indicates >50% activity at about 10 μM) | > 50
COc1ccc(C(=O)Nc2ccc(F)c(Cl)c2)cc1S(=O)(=O)N1CCCC(O)C(F)C1 (centres unmarked) [Compound 2114_D2] | + (‘+’ indicates >50% activity at about 10 μM) | 
